# Measured values reported in US8901110B2, “Use of biomarkers in methods for the treatment of hepatocellular carcinoma” (Celgene Corporation, priority 2012, dated 2014).
# How the values were obtained:
# [1] = test system: HAK-1B cell line (poorly differentiated HCC cell line); assay: Cell invasion assay (Matrigel-coated chamber), HAK-1B cell line; assay type: cell-based; details: HAK-1B (printed HAK-1AB), FIG. 4
# Experimental: (§1) Focus and Hub7 cells were treated with 10 μM of LM in DMSO or DMSO as a control for 24 hrs. The cells were transferred in a migration chamber coated with Matrigel (BD Biosciences). After 16 hrs, invasive cells attached to the bottom of the membrane were stained/counted and normalized by the number of migrative cells in a corresponding non-coated migration chamber.
# (§2) In another set of experiments, the effects of LM and Compound A on HCC cell migration and invasion were assessed using procedures similar to those described above, except that HAK-1B cell line (poorly differentiated HCC cell line) was employed.
# [2] = test system: FOCUS cell line (poorly differentiated HCC cell line); assay: Wound healing assay, FOCUS cell line; assay type: cell-based; details: FIG. 7
# Experimental: (§3) 1. Cell seeding: A grid on the underside of the plate (60 mm) was drawn according to the paper diagram. Cells were seeded on 60 mm dish (aimed for confluent cells).
# (§4) 2. Scratch wound: Using a tip (green), a scratch wound was made. The locations of the wounds were recorded by drawing on a paper. SF DMEM+trypsin aliquot was retrieved from the incubator, and the media/floating cells from the dish was aspirated. Cells were washed with DMEM+Trypsin to remove cells that have not been completely scratched away from the wound. Then the dish was filled with 4 ml of 10% FBS DMEM.
# (§5) 3. Taking photographs: The marker was included on the top of the image frame so the same wound area can be kept track of. Then pictures of those wounds for the indicated time points were taken. Results were expressed as percentage of wound closure, as an index of cell migration, normalized to the initial width.
# In another set of experiments, the effects of LM and Compound A on HCC cell migration were assessed using wound healing assay in FOCUS cell line (poorly differentiated HCC cell line).
# [3] = test system: HAK-1A cell line (well differentiated HCC cell line); assay: Cell migration assay (migration chamber), HAK-1A cell line; assay type: cell-based; details: FIG. 3
# [4] = test system: HAK-1A cell line (well differentiated HCC cell line); assay: Wound healing assay, HAK-1A cell line; assay type: cell-based; details: FIG. 6
# Experimental: In another set of experiments, the effects of LM and Compound A on HCC cell migration were assessed using wound healing assay in HAK-1A cell line (well differentiated HCC cell line). The following procedures were used.
# as §3, §4, §5
# [5] = test system: HAK-1B cell line (poorly differentiated HCC cell line); assay: Cell migration assay (migration chamber), HAK-1B cell line; assay type: cell-based; details: FIG. 4
# Experimental: (§6) Focus and Hub7 cells were treated with 10 μM of LM in DMSO or DMSO as a control for 24 hrs. The cells were transferred in a migration chamber (BD Biosciences). The lower chamber was filled with 10% FBS-containing medium as a chemoattractant and was separated from the upper chamber by a 8 μm pore membrane. After 16 hrs, the remaining cells in the upper chamber (non-migrated cells) were removed and the cell attached to the bottom of the membrane (migrated cells) were stained with crystal violet and counted using Stereologer (SRC) in 10 different fields of the membrane.
# as §2
# HAK1A-J xenograft [6] = assay: HAK1A-J xenograft models, pilot study (tumor volume); assay type: in vivo, mice; details: compared with control, FIG. 19
# Experimental: Effects of LM and Compound A in HAK1A-J xenograft models were examined in a pilot study using 5 animals (mice). Anti-tumor effects of LM and Compound A were assessed following the xenograft by measuring tumor volume after the treatment by the drugs.
# HAK1A-J xenograft [7] = assay: HAK1A-J xenograft models (tumor volume); assay type: in vivo; details: male mice; compared with control or LM treated mice; FIG. 21
# Experimental: Effects of LM and Compound A in HAK1A-J xenograft models were examined using 50 male mice 4 weeks of age. Anti-tumor effects of LM and Compound A were assessed following the xenograft by measuring tumor volume after the treatment by the drugs.
# [8] = test system: HAK-1B cell line (poorly differentiated HCC cell line); assay: Wound healing assay, HAK-1B cell line; assay type: cell-based; details: FIG. 8
# Experimental: as §3, §4, §5
# In another set of experiments, the effects of LM and Compound A on HCC cell migration were assessed using wound healing assay in HAK-1B cell line (poorly differentiated HCC cell line).
# [9] = test system: HCC cell lines Huh7, FOCUS, HAK-1A and HAK-1B; assay: MTS assay (cytotoxicity); assay type: cell-based; details: 24 or 72 hours; FIG. 17
# Experimental: MTS assay was performed to evaluate the toxicity of Compound A for HCC cell lines Huh7, FOCUS, HAK-1A and HAK-1B. Compound A, at various concentrations ranging from […], was incubated with the specified cells for 24 or 72 hours.
# [10] = test system: TCF-4J isoform dependent target genes; assay: qRT-PCR of TCF-4J responsive target genes in xenograft tumors; assay type: in vivo, mice; details: for mRNA expression: HAK1A-J xenograft models, legend of FIG. 22, genes not named
# Experimental: Effects of LM and Compound A on expression of TCF-4J responsive target genes in HAK-1A xenograft tumors were assessed by measuring mRNA expression levels of TCF-4J isoform dependent target genes in xenograft tumors treated with LM, Compound A and control vehicle. The following procedures were used: Total RNA was extracted from tumors using TRIzol Reagent, and reverse transcription was performed with First Strand cDNA Synthesis Kit for RT-PCR (AMV). Quantitative real-time PCR was carried out on a Mastercycler ep realplex instrument and software, using SYBR Green PCR reagents. Relative quantification was performed using ΔΔCt method, normalizing to 18S rRNA. Dissociation curves were generated to evaluate PCR product specificity and purity.
# [11] = test system: Focus cells (poorly differentiated HCC cell line); assay: Cell invasion assay (Matrigel-coated chamber), Focus cell line; assay type: cell-based
# Experimental: as §1
# (§7) In another set of experiments, the effects of LM and Compound A on HCC cell migration and invasion were assessed using procedures similar to those described above using FOCUS cell line (poorly differentiated HCC cell line).
# [12] = test system: Focus cells (poorly differentiated HCC cell line); assay: Cell migration assay (migration chamber), Focus cell line; assay type: cell-based
# Experimental: as §6, §7
# TCF-4 = assay: Western blot of nuclear TCF-4 expression after LM treatment; assay type: cell-based; details: 10 μM, 24 hrs; poorly-differentiated cells (Focus); normalized by lamin; FIG. 1
# Experimental: Focus and Hub7 cells were treated with 10 μM of lenalidomide (“LM”) in DMSO or DMSO as a control for 24 hrs. Nuclear and cytosolic proteins were separately extracted and the expression of TCF-4 was analyzed by western blot. Nuclear expression of both long and short isoforms of TCF-4 was qualified using ImageJ (NIH) and normalized by expression of lamin.
# [13] = xenograft tumors, ΔΔCt, normalized to 18S rRNA, FIG. 22
# [14] = another set of experiments, FOCUS, poorly differentiated, FIG. 5
Structure (SMILES),cell migration (wound closure) [2],cell migration [3],cell migration (wound closure) [4],cell migration [5],tumor volume (HAK1A-J xenograft [6]),tumor volume (HAK1A-J xenograft [7]),mRNA expression [10],"cell invasion [11, 14]","cell migration [12, 14]",other results
"Cc1nc2cccc(N)c2c(=O)n1C1CCC(=O)NC1=O (stereo not drawn) [Compound A, 3-(5-amino-2-methyl-4-oxo-4H-quinazolin-3-yl)-piperidine-2,6-dione]",reduced cell migration,did not affect the cell migration,did not affect the cell migration,inhibited cell migration,significantly reduced the volume of tumors,much more significantly reduced the volume of tumors,reduction of mRNA expression,inhibited cell invasion,did not inhibit cell migration,"cell invasion [1]: inhibited cell invasion; cell migration (wound closure) [8]: reduced cell migration; HCC cell proliferation [9]: no effect on HCC cell proliferation; mRNA level of ANXA1 [10, 13]: reduced; mRNA level of ASPH [10, 13]: reduced; mRNA level of CAMK2N1 [10, 13]: reduced; mRNA level of CLDN2 [10, 13]: reduced; mRNA level of GPR56 [10, 13]: reduced; mRNA level of JAG1 [10, 13]: reduced"
"Nc1cccc2c1CN(C1CCC(=O)NC1=O)C2=O (stereo not drawn) [LM, 1-oxo-2-(2,6-dioxopiperidin-3-yl)-4-aminoisoindoline, reference compound]",reduced cell migration,did not affect the cell migration,did not affect the cell migration,inhibited cell migration,significantly reduced the volume of tumors,reduction of tumor volume was observed,reduction of mRNA expression,inhibited cell invasion,did not inhibit cell migration,"cell invasion ([11]; 10 μM, 24 hrs, invasive cells after 16 hrs, normalized by migrative cells, Focus, FIG. 2): inhibited cell invasion; cell migration ([12]; 10 μM, 24 hrs, migrated cells counted after 16 hrs, Focus, FIG. 2): inhibited cell migration; TCF-4 expression, short and long forms (nuclear) (TCF-4): decreased"
